The test deals with Spermine synthase (Rattus norvegicus). Kind of test: Inhibitory activity against spermine synthase.

Consider one molecule from BindingDB's records for doi:10.1021/jm00143a003 (1982).

Each structure is given as a SMILES string.

Molecule `C[S+](C[C@H]1O[C@H](n2cnc3c(N)ncnc32)[C@H](O)[C@@H]1O)C(CCN)CCCCCN` (stereo partly specified) displayed an IC50 of 80 µM.

As usually defined, the IC50 is the concentration that inhibits the measured activity by half. High values mean a need for much substance, low ones inhibition by little substance.
